Measurements reported in ChEMBL document CHEMBL1127083 (J Med Chem, 1993).

What follows are molecules tested against Leukotriene B4 receptor (Homo sapiens, UniProt Q9NPC1+Q15722) (assay: Inhibition of LTB4-induced up-regulation of human neutrophil CD11b/CD18 integrin).
Assay type: functional

| IC50 [nM] | Structure (SMILES) |
| --- | --- |
| 3.4 | CCc1cc(-c2ccccc2)c(O)cc1OCCCOc1ccc2c(=O)c3cc(C(=O)O)ccc3oc2c1CCC(=O)O |
| 5.4 | CCc1cc(-c2ccccc2)c(O)cc1OCCCOc1ccc2c(=O)c3ccccc3oc2c1CCC(=O)O |
| 1.2 | CCc1cc(-c2ccc(F)cc2)c(O)cc1OCCCOc1ccc2c(=O)c3cc(C(=O)O)ccc3oc2c1CCC(=O)O |
| 1.8 | CCc1cc(-c2ccc(F)cc2)c(O)cc1OCCCOc1ccc2c(=O)c3ccccc3oc2c1CCC(=O)O |

These molecules were tested against Leukotriene B4 receptor 1 (Homo sapiens, UniProt Q15722) (assay: Tested for inhibition of specific binding of [3H]LTB4 to human neutrophil expressing LTB4 receptor).
Sequence of Leukotriene B4 receptor 1 (Q15722 whole entry): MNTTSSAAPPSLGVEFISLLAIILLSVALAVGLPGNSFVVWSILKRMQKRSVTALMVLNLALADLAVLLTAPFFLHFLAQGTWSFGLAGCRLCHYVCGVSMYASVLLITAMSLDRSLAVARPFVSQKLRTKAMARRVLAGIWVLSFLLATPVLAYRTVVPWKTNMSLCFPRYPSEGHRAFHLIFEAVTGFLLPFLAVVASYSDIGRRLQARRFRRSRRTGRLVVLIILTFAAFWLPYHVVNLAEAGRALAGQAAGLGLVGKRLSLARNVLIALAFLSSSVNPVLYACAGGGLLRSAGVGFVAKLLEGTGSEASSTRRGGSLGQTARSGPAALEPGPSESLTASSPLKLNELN

| Ki [nM] | Structure (SMILES) |
| --- | --- |
| 0.57 | CCc1cc(-c2ccccc2)c(O)cc1OCCCOc1ccc2c(=O)c3cc(C(=O)O)ccc3oc2c1CCC(=O)O |
| 22 | CCc1cc(-c2ccccc2)c(O)cc1OCCCOc1ccc2c(=O)c3ccccc3oc2c1CCC(=O)O |
| 0.47 | CCc1cc(-c2ccc(F)cc2)c(O)cc1OCCCOc1ccc2c(=O)c3cc(C(=O)O)ccc3oc2c1CCC(=O)O |
| 36 | CCc1cc(-c2ccc(F)cc2)c(O)cc1OCCCOc1ccc2c(=O)c3ccccc3oc2c1CCC(=O)O |
